Results as given in US12370255B2, “Peptide-based vaccines, methods of manufacturing, and uses thereof for inducing an immune response” (Barinthus Biotherapeutics North America, Inc., priority 2017, dated 2025).
Entries after “also recorded” stand apart in the source; their conditions may differ. *1 amine or outer side, *2 acyl side, *3 side chain or, on linkers, in order; H or OH if unused. Where a SMILES comes first, the peptide text is derived from it. Where no end group is shown, it is not given here. Side-chain parts run from the residue outwards. The star is where a group is joined. 2B = 1-(4-aminobutyl)-2-butyl-1H-imidazo[4,5-c]quinolin-4-amine, CCCCc1nc2c(N)nc3ccccc3c2n1CCCCN*; X2 = CCCCNc1nc(N)c2nc(O)n(Cc3ccc(C(=O)NCC(=O)NCCCn4nnc5c4-c4ccccc4N(*)Cc4ccccc4-5)cc3)c2n1; X1 = C1=C\c2ccccc2N(*)Cc2ccccc2/1; Suc = O=C(CCC(=O)[*:2])[*:1]

Tests used:
T cells = assay: T cell responses in vivo induced by peptide antigen conjugates; conditions: immunogenic compositions of peptide antigen conjugates
Text: FIG. 37 discloses SEQ ID NOS 580-585, respectively, in order of appearance.
FIG. 38 discloses SEQ ID NOS 586-602, respectively, in order of appearance.
FIG. 39 discloses SEQ ID NOS 603-605 and 605, respectively, in order of appearance.
FIG. 40 discloses SEQ ID NOS 606-610, respectively, in order of appearance.
FIG. 41 discloses SEQ ID NOS 603-605, 103 and 611, respectively, in order of appearance.
FIG. 42 discloses SEQ ID NO: 104.
FIG. 45 discloses SEQ ID NOS 619, 620, 619, 621, 180 and 622, respectively, in order of appearance.

CD8 T cells = assay: antigen-specific CD8 T cell responses (% IFNg+ of total CD8 T cells) from whole blood of immunized mice; type: in vivo; conditions: native LP neoantigen admixed with pICLC; immunized days 0 and 14, day 28
Text: Mice (N=5 per group) were immunized with different immunogenic compositions comprising peptide antigens (A) based on either the synthetic long peptide (LP, sometimes referred to as “SLP”) or the minimal CD8 T cell epitope (Min, sometimes referred to as ME) of the antigen Irgq derived from the MC38 tumor cell line either as the peptide antigen (A) alone admixed with the TLR-7/8a adjuvant; as the peptide antigen (A) linked to a hydrophobic molecule (H), W3, and admixed with the TLR-7/8a adjuvant; or as the peptide antigen (A) linked to a hydrophobic molecule (H) co-delivering a TLR-7/8a adjuvant, 2BXy3. Mice were immunized at days 0 and 14 and antigen-specific CD8 T cell responses (% IFNg+ of total CD8 T cells) were assessed from whole blood at days 0 and 25. Open circles indicate that the peptide antigen (A) was soluble (i.e. non-particulate), whereas closed circles indicate that the mice received a particulate immunogenic composition of the peptide antigen (A).
Mice (N=5 per group) were immunized with different immunogenic compositions comprising peptide antigens (A) based on either the synthetic long peptide (LP) or minimal CD8 T cell epitope (Min) of the antigen Cpne1 derived from the MC38 tumor cell line either as the peptide antigen (A) alone admixed with the TLR-7/8a adjuvant; as the peptide antigen (A) linked to a hydrophobic molecule (H), W3, and admixed with the TLR-7/8a adjuvant; or as the peptide antigen (A) linked to a hydrophobic molecule (H) co-delivering a TLR-7/8a adjuvant, 2BXy3. Mice were immunized at days 0 and 14 and antigen-specific CD8 T cell responses (% IFNg+ of total CD8 T cells) were assessed from whole blood at days 0 and 25. […]
Mice (N=5 per group) were immunized with immunogenic compositions comprising 4 unique peptide antigen conjugates delivering a distinct MC38 tumor derived minimal CD8 T cell epitopes (40 total epitopes) that were linked to either 2BXy5 or 2B5 hydrophobic molecules (H). Mice were immunized at days 0 and 14 and antigen-specific CD8 T cell responses (% IFNg+ of total CD8 T cells) were assessed from whole blood at day 24.

[1] = hydrodynamic behavior: water solubility, particle size by dynamic light scattering and turbidity in PBS pH 7.4; type: physicochemical; conditions: aqueous buffer at pH about 7.4
Text: FIG. 4: Molecular weight and hydrodynamic behavior of peptide antigens (A) and peptide antigen conjugates delivering peptide antigens (A) comprised of either synthetic long peptides (SLP or “LP”) or minimal (“Min”) CD8 T cell epitopes derived from the MC38 tumor cell line. […] FIG. 4 discloses SEQ ID NOS 190-199, 623 and 200, respectively, in order of appearance. FIG. 18: Impact of peptide antigen conjugate net charge and hydrophobic molecule composition on hydrodynamic behavior. The hydrodynamic behavior of a range of different peptide antigen conjugates of Formula V at 0.1 mg/mL or 0.5 mg/mL in PBS at a pH of 7.4 was assessed by dynamic light scattering. […] Turbidity was determined by measuring the absorbance of the solution at 490 nm. […] (A) The impact of net charge on the hydrodynamic behavior of a range of different peptide antigen conjugates of Formula V suspended at 0.1 mg/mL or 0.5 mg/mL in PBS at a pH of 7.4 was assessed by dynamic light scattering. […] The hydrodynamic behavior of a range of different peptide antigen conjugates suspended at 0.1 mg/mL in PBS at a pH of 7.4 was assessed by dynamic light scattering. […] Particle size was assessed by dynamic light scattering with the peptide antigen conjugate suspended at 0.5 mg/mL in PBS at a pH of 7.4. […] Solubility can be determined by visual inspection, by turbidity measurements or by dynamic light scattering.

CCCCNc1nc(N)c2nc(O)n(Cc3ccc(C(=O)NCC(=O)NCCCn4nnc5c4-c4ccccc4N(C(=O)CCC(=O)NCCCCC(NC(=O)CNC(=O)CCC(=O)N4Cc6ccccc6/C=C\c6ccccc64)C(=O)NCC(=O)NC(Cc4c[nH]c6ccccc46)C(=O)NC(Cc4c[nH]c6ccccc46)C(=O)NC(Cc4c[nH]c6ccccc46)C(=O)NC(Cc4c[nH]c6ccccc46)C(=O)NC(Cc4c[nH]c6ccccc46)C(N)=O)Cc4ccccc4-5)cc3)c2n1 (centres unmarked) [Compound 30] ({X1-Suc}-GK([Suc-X2])GWWWWW-NH2; configuration not given here)
T cell responses in vivo (in words) (T cells): highest magnitude responses

CCCCc1nc2c(N)nc3ccccc3c2n1CCCCNC(=O)CCC(NC(=O)C(Cc1c[nH]c2ccccc12)NC(=O)C(CCC(=O)NCCCCn1c(CCCC)nc2c(N)nc3ccccc3c21)NC(=O)C(Cc1c[nH]c2ccccc12)NC(=O)C(CCC(=O)NCCCCn1c(CCCC)nc2c(N)nc3ccccc3c21)NC(=O)CCC(=O)N1Cc2ccccc2-c2c(nnn2CCCCC(=O)NC(CCCCN)C(=O)NC(CCCCN)C(=O)NC(CCCCN)C(=O)NC(CCCCN)C(=O)NC(CCCCN)C(=O)NC(CCCCN)C(=O)NC(CCCCN)C(=O)NC(CCCCN)C(=O)NC(CCCCN)C(=O)NC(CCCCN)C(N)=O)-c2ccccc21)C(N)=O (centres unmarked) [Compound 42]
T cell responses in vivo (in words) (T cells): high magnitude T cell immunity

Adpgk: native LP neoantigen from MC38 that assembles into particles; minimal epitope Ala-Ser-Met-Thr-Asn-Met-Glu-Leu-Met (ASMTNMELM)
CD8 T cell responses (in words) (CD8 T cells): significant increase in CD8 T cell responses over background; also recorded: immunogenic

Compound 16 (GGE(2B)GGE(2B)GGE(2B)GGE(2B)GGE(2B); also: DBCO)
T cell responses in vivo (in words) (T cells): high magnitude T cell responses | particle formation and stability (in words) [1]: formed stable nanoparticle micelles

Compound 20 (KGWGWGKGWGWGKGWGWGKGWGWGKGWGWG; not fully specified (residues 1, 7, 13, 19, 25))
T cell responses in vivo (in words) (T cells): high magnitude T cell responses | particle formation and stability (in words) [1]: formed stable nanoparticle micelles

Cpne1: native LP neoantigen derived from the MC38 tumor cell line, water soluble; minimal epitope Ser-Ser-Pro-Tyr-Ser-Leu-His-Tyr-Leu (SSPYSLHYL)
CD8 T cell responses (in words) (CD8 T cells): no CD8 T cell responses
